Measured values reported in patent publication US20100261711A1, “SELECTIVE ANTICONVULSANT AGENTS AND THEIR USES” (WiSys Technology Foundation, priority 2009, published 2010).
Where two headings read alike, the source gives them in different places. Marks after values point to notes of the source that are not given here.

Columns and labels:
[1] = Toxicity (TOX), rotorod procedure, mice; format: in vivo; conditions: mouse, in vivo; IP route in mice (footnote of Table 10); read-out: TD50
6 Hz psychomotor seizure = assay: Minimal clonic seizure (6 Hz) test; format: in vivo; conditions: Mice IP; for ED50: Mus musculus, ip
In short: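 Mice dosed ip with test compound before 6 Hz corneal-type electrical stimulation lasting 3 s. Protection scored as absence of minimal clonic phase and stereotyped automatistic behaviour seen in untreated animals.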

MES-induced seizures [2] = conditions: Rat PO; from Antiepileptic Drugs, 5th ed., Levy et al., 2002; cited from earlier work
[3] = tested on: Metrazol-induced clonic seizures; conditions: Mice IP; from Antiepileptic Drugs, 5th ed., Levy et al., 2002; cited from earlier work
MES-induced seizures [4] = conditions: Mice IP; from Antiepileptic Drugs, 5th ed., Levy et al., 2002; cited from earlier work
[5] = tested on: minimal motor deficit (ataxia, abnormal gait); conditions: Rat PO; from Antiepileptic Drugs, 5th ed., Levy et al., 2002; cited from earlier work
[6] = tested on: Metrazol-induced clonic seizures; conditions: Rat PO; from Antiepileptic Drugs, 5th ed., Levy et al., 2002; cited from earlier work
[7] = tested on: minimal muscular or neurological impairment; assay: Toxicity (TOX), rotorod procedure, mice; format: in vivo
MES-induced seizures [8] = assay: Maximal electroshock test (MES), rats; format: in vivo; conditions: Rat PO; for MES, animals protected/tested: 30 mg/kg
Procedure: (§1) The benzodiazepine derivative compounds selective for GABAa receptor subunits were tested for the ability to suppress seizures in several standard rat and mouse models of epilepsy. […] The standard models incorporated into anticonvulsant screening include the maximal electroshock test (MES), the subcutaneous Metrazol test (scMet), and evaluations of toxicity (TOX). The data for each condition is presented as a ratio of either the number of animals protected or toxic (loss of locomotor activity) over the number of animals tested at a given time point and dose.
(§2) The MES is a model for generalized tonic-clonic seizures and provides an indication of a compound's ability to prevent seizure spread when all neuronal circuits in the brain are maximally active. These seizures are highly reproducible and are electrophysiologically consistent with human seizures. For all tests based on MES convulsions, 60 Hz of alternating current (50 mA in mice, 150 in rats) is delivered for by corneal electrodes which have been primed with an electrolyte solution containing an anesthetic agent (0.5% tetracaine HCL). For Test 1, mice are tested at various intervals following doses of 30, 100 and 300 mg/kg of test compound given by ip injection of a volume of 0.01 mL/g. In Test 2, rats are tested after a dose of 30 mg/kg (po) in a volume of 0.04 mL/g. Test 8 uses varying doses administered via i.p. injection, again in a volume of 0.04 ml/g. […] In Antiepileptic Drugs, Levy, R. H. M., Meldrum, B. S., Eds.; Raven Press: New York, pp 99-110, 1995b.).

[9] = tested on: Metrazol-induced clonic seizures; assay: Subcutaneous Metrazol test (scMet), mice; format: in vivo
Procedure: as §1
(§3) Subcutaneous injection of the convulsant Metrazol produces clonic seizures in laboratory animals. […] Animals are pretreated with various doses of the test compound (in a similar manner to the MES test, although a dose of 50 mg/kg (po) is the standard for Test 2 scMet). At the previously determined TPE of the test compound, the dose of Metrazol which will induce convulsions in 97% of animals (CD97: 85 mg/kg mice) is injected into a loose fold of skin in the midline of the neck. […] An episode of clonic spasms, approximately 3-5 seconds, of the fore and/or hindlimbs, jaws, or vibrissae is taken as the endpoint.

kindled motor seizure = assay: Hippocampus kindling screen; format: in vivo; conditions: Rats IP, 3 mg/kg after 4 h
From the text: The hippocampus kindling screen is a useful adjunct to the traditional MES and scMet tests for identification of a substance potential utility for treating complex partial seizures. […] No toxic effects were observed as indicated by the lack of motor impairment on the rats tested.

MES-induced seizures [10] = assay: Maximal electroshock test (MES), mice; format: in vivo
Procedure: as §1, §2

[11] = tested on: Metrazol-induced clonic seizures; assay: Subcutaneous Metrazol test (scMet), rats; format: in vivo
Procedure: as §1, §3

[12] = Toxicity (TOX), minimal motor deficit, rats; format: in vivo; conditions: in vivo; Rat IP
Procedure: as §1
(§4) To assess a compound's undesirable side effects (toxicity), animals are monitored for overt signs of impaired neurological or muscular function. […] When a mouse is placed on a rod that rotates at a speed of 6 rpm, the animal can maintain its equilibrium for long periods of time. The animal is considered toxic if it falls off this rotating rod three times during a 1-min period. In rats, minimal motor deficit is indicated by ataxia, which is manifested by an abnormal, uncoordinated gait. Rats used for evaluating toxicity are examined before the test drug is administered, since individual animals may have peculiarities in gait, equilibrium, placing response, etc., which might be attributed erroneously to the test substance.

[13] = tested on: minimal motor deficit (ataxia, abnormal gait); assay: Toxicity (TOX), minimal motor deficit, rats; format: in vivo; conditions: Rat PO; for Tox, animals toxic/tested: 50 mg/kg
Procedure: as §1, §4

[14] = tested on: minimal muscular or neurological impairment; conditions: Mice IP; from Antiepileptic Drugs, 5th ed., Levy et al., 2002; cited from earlier work
GABAA/α3 = GABAA/α3 (Homo sapiens, UniProt P18507+P34903); conditions: Huang et al., J. Med. Chem. 2000, 43, 71-95; cited from earlier work
GABAA/α5 receptors = GABAA/α5 receptors (Homo sapiens, UniProt P18507+P31644); conditions: Huang et al., J. Med. Chem. 2000, 43, 71-95; cited from earlier work
GABAA/α2 = GABAA/α2 (Homo sapiens, UniProt P18507+P47869); conditions: Huang et al., J. Med. Chem. 2000, 43, 71-95; cited from earlier work
[15] = target: T1, GABAA/α5 (α5β3γ2 GABAA receptors) (Homo sapiens, UniProt P18507+P31644); assay: Competitive binding assay, [3H]flunitrazepam; conditions: Binding Affinity at GABAA/α5, αxβ3γ2, [3H]flunitrazepam competition
T1 construct: expressed in transfected cells
Procedure: (§5) The GABAA subunit selectivity of several compounds prepared as described above were determined using competitive binding assays. […] Membranes were harvested with a Brandel cell harvester followed by three ice-cold washes onto polyethyleneimine-pretreated (0.3%) Whatman GF/C filters. Filters were dried overnight and then soaked in Ecoscint, a liquid scintillation cocktail (National Diagnostics; Atlanta, Ga.). Bound radioactivity was quantified by liquid scintillation counting. Membrane protein concentrations were determined using an assay kit from Bio-Rad (Hercules, Calif.) with bovine serum albumin as the standard.

[16] = target: T2, GABAA/α6 (α6β3γ2 GABAA receptors) (Homo sapiens, UniProt P18507+Q16445); assay: Competitive binding assay, [3H]flunitrazepam
T2 construct: expressed in transfected cells
Procedure: as §5

[17] = target: T3, GABAA/α4 (α4β3γ2 GABAA receptors) (Homo sapiens, UniProt P18507+P48169); assay: Competitive binding assay, [3H]flunitrazepam
T3 construct: expressed in transfected cells
Procedure: as §5

[18] = target: T4, GABAA/α3 (α3β3γ2 GABAA receptors) (Homo sapiens, UniProt P18507+P34903); assay: Competitive binding assay, [3H]flunitrazepam; conditions: Binding Affinity at GABAA/α3, αxβ3γ2, [3H]flunitrazepam competition
T4 construct: expressed in transfected cells
Procedure: as §5

[19] = target: T5, GABAA/α1 (α1β3γ2 GABAA receptors) (Homo sapiens, UniProt P14867+P18507); assay: Competitive binding assay, [3H]flunitrazepam; conditions: αxβ3γ2, [3H]flunitrazepam competition; read-out: Binding Affinity at GABAA/α1
T5 construct: expressed in transfected cells
Procedure: as §5

[20] = target: T6, GABAA/α2 (α2β3γ2 GABAA receptors) (Homo sapiens, UniProt P18507+P47869); assay: Competitive binding assay, [3H]flunitrazepam; conditions: αxβ3γ2, [3H]flunitrazepam competition; read-out: Binding Affinity at GABAA/α2
T6 construct: expressed in transfected cells
Procedure: as §5

GABAA/α1 receptors = GABAA/α1 receptors (Homo sapiens, UniProt P14867+P18507); conditions: Huang et al., J. Med. Chem. 2000, 43, 71-95; cited from earlier work
[21] = 32 mA, read-out: ED50 32 mA (6 Hz test)
[22] = Mice, 50 mg/kg PO (Mice IP), 0.5 hr
[23] = Mice, 50 mg/kg PO (Mice IP), 4.0 hr

Structure (SMILES): O=C1NC(=O)C(c2ccccc2)(c2ccccc2)N1 [Phenytoin]
- TD50 [1]: 51 mg/kg
- ED50 (6 Hz psychomotor seizure; [21]): > 40 mg/kg
- ED50 MES (MES-induced seizures [2]): 28.1 mg/kg
- ED50 scMet [3]: >50 mg/kg
- ED50 MES (MES-induced seizures [4]): 5.64 mg/kg
- TD50 TOX [5]: >1000 mg/kg
- ED50 scMet [6]: >500 mg/kg

Structure (SMILES): C#Cc1ccc2c(c1)C(c1ccccc1Cl)=NCc1nnc(C)n1-2 [XLi-JY-DMH (23), 8-Acetyleno-5-(2′-chlorophenyl)-1-methyl-4H-s-triazolo-[4,3-a]-1,4-benzodiazepine]
- TOX (Rotorod Test), animals toxic/tested ([7]; Mice IP, 100 mg/kg, 0.5 hr): 6/8
- TOX (Rotorod Test), animals toxic/tested ([7]; Mice IP, 100 mg/kg, 4.0 hr): 2/4
- TD50 TOX ([7]; Mice IP, rotorod): 2.875 mg/kg
- TOX (Rotorod Test), animals toxic/tested [7, 22]: 0/4
- TOX (Rotorod Test), animals toxic/tested [7, 23]: 0/4
- ED50 (6 Hz psychomotor seizure; [21]): 0.17 mg/kg
- ED50 (6 Hz psychomotor seizure; 44 mA, read-out: ED50 44 mA (6 Hz test)): 0.4 mg/kg
- ED50 (MES-induced seizures [8]): > 150 mg/kg
- MES, animals protected/tested (MES-induced seizures [8]; 0.5 h): 0/4
- MES, animals protected/tested (MES-induced seizures [8]; 1.0 h): 0/4
- MES, animals protected/tested (MES-induced seizures [8]; 2.0 h): 0/4
- MES, animals protected/tested (MES-induced seizures [8]; 4.0 h): 0/4
- MES, animals protected/tested (MES-induced seizures [8]; […]): 0/4
- mice protected against scMet induced seizures ([9]; Mice IP, 100 mg/kg, 0.5 hr): 100%
- scMet, animals protected/tested ([9]; Mice IP, 100 mg/kg, 0.5 hr): 1/1
- scMet, animals protected/tested ([9]; Mice IP, 100 mg/kg, 4.0 hr): 1/1
- scMet, animals protected/tested [9, 22]: 3/4
- scMet, animals protected/tested [9, 23]: 2/4
- ED50 ([9]; Mus musculus, Mice IP): 1.03 mg/kg
- Tox, animals toxic/tested (kindled motor seizure): 0/2^c
- Afterdischarge Duration, Drug (Low-High) (kindled motor seizure; pre-drug 29-41): 29- s
- MES, animals protected/tested (MES-induced seizures [10]; Mice IP, 100 mg/kg, 0.5 hr): 3/3
- MES, animals protected/tested (MES-induced seizures [10]; Mice IP, 100 mg/kg, 4.0 hr): 3/3
- MES, animals protected/tested (MES-induced seizures [10]; [22]): 0/4
- MES, animals protected/tested (MES-induced seizures [10]; [23]): 0/4
- ED50 (MES-induced seizures [10]; Mus musculus, Mice IP): > 6 mg/kg
- ED50 ([11]; Rat IP): 4.2 mg/kg
- ED50 ([11]; Rat PO): 1.58 mg/kg
- scMet, animals protected/tested ([11]; Rat PO, 15 mg/kg, 0.5 h): 3/4^c
- scMet, animals protected/tested ([11]; Rat PO, 15 mg/kg, 1.0 h): 2/4^c
- scMet, animals protected/tested ([11]; Rat PO, 15 mg/kg, 2.0 h): 4/4^c
- scMet, animals protected/tested ([11]; Rat PO, 15 mg/kg, 4.0 h): 2/4^c
- scMet, animals protected/tested ([11]; Rat PO, 15 mg/kg, […]): 3/4^c
- scMet, animals protected/tested ([11]; Rat PO, 50 mg/kg, 0.5 h): 4/4
- scMet, animals protected/tested ([11]; Rat PO, 50 mg/kg, 1.0 h): 4/4
- scMet, animals protected/tested ([11]; Rat PO, 50 mg/kg, 2.0 h): 4/4
- scMet, animals protected/tested ([11]; Rat PO, 50 mg/kg, 4.0 h): 3/4
- scMet, animals protected/tested ([11]; Rat PO, 50 mg/kg, […]): 4/4
- TD50 [12]: 2.08 mg/kg
- Tox, animals toxic/tested ([13]; 0.5 h): 0/4
- Tox, animals toxic/tested ([13]; 1.0 h): 0/4
- Tox, animals toxic/tested ([13]; 2.0 h): 0/4
- Tox, animals toxic/tested ([13]; 4.0 h): 0/4
- Tox, animals toxic/tested ([13]; […]): 0/4
- TD50 TOX ([13]; abnormal gait): 166.25 mg/kg

Structure (SMILES): O=C1CN=C(c2ccccc2Cl)c2cc([N+](=O)[O-])ccc2N1 [Clonazepan]
- ED50 32 mA (6 Hz test) (6 Hz psychomotor seizure; 32 mA): 0.04 mg/kg
- ED50 MES (MES-induced seizures [2]): 7.86 mg/kg
- ED50 scMet [3]: 0.02 mg/kg
- ED50 MES (MES-induced seizures [4]): 25.6 mg/kg
- TD50 TOX [14]: 0.26 mg/kg
- TD50 TOX [5]: 2.38 mg/kg
- ED50 scMet [6]: 0.61 mg/kg

Structure (SMILES): C#Cc1ccc2c(c1)C(c1ccccc1)=NCC(=O)N2C [QH-II-066, 1-Methyl-7-acetyleno-5-phenyl-1,3-dihydro-benzo[e]-1,4-diazepin-2-one]
- Ki (GABAA/α3): < 50 nM
- Ki (GABAA/α5 receptors): < 10 nM
- Ki (GABAA/α2): < 50 nM
- Ki [15]: 6.8 nM
- Ki [16]: > 1000 nM
- Ki [17]: > 1000 nM
- Ki [18]: 47.4 nM
- Ki [19]: 76.3 nM
- Ki [20]: 42.1 nM
- Ki (GABAA/α1 receptors): > 70 nM
